Experimental data from US20240239752A1, “BICYCLIC HETEROAROMATIC INHIBITORS OF KLK5” (BioCryst Pharmaceuticals, Inc., priority 2021, published 2024).

Target: T1, recombinant human KLK5 (Homo sapiens, UniProt Q9Y337)
T1 construct: purchased Novoprotein or R&D Systems C415 or 1108-SE
T1 sequence (Q9Y337 23-293): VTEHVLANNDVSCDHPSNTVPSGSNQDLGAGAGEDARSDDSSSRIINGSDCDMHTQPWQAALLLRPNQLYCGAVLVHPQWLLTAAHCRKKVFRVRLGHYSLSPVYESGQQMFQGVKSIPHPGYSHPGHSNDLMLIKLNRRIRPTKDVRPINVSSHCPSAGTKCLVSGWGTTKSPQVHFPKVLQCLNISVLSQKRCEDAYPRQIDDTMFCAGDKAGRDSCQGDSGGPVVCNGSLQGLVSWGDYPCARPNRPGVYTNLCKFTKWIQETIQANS
Assay: Kallikrein (KLK) 5 enzymatic assay (Boc-VPR-AMC fluorogenic substrate)
Assay type: biochemical
Conditions: recombinant human KLK5 0.1 μg/well, Boc-VPR-AMC 100 μM, pH 7.5, room temperature, 1% DMSO; tested a minimum of three times
Description: Kallikrein-5 (KLK5) is a member of the serine protease family of proteolytic enzymes, confirmed to have trypsin-like activity (Michael I P, et al. Biochemical and enzymatic characterization of human kallikrein 5 (hK5), a novel serine protease potentially involved in cancer progression (J. Biol. Chem. 2005 Apr. 15; 280 (15): 14628-35). Boc-VPR-AMC is a fluorogenic peptide substrate composed of the short peptide chain, Valine-Proline-Arginine (VPR) and the fluorophore, 7-amino-4-methylcoumarin (AMC). KLK5 is able to cleave the fluorogenic peptide substrate Boc-VPR-AMC, releasing the AMC fluorophore, which causes a fluorescent emission in proportion with the enzymatic activity of KLK5. The KLK5 enzymatic activity is monitored by measuring fluorescent emission at wavelengths of 380 nm (excitation) and 460 nm (emission).
The IC50 value of compounds against KLK5 (i.e., the concentration of the compound that inhibits 50% of the enzymatic activity) was calculated according to the procedure reported by R&D systems (Recombinant human KLK5, Catalog Number: 1108-SE), with the exception the pH of the assay was modified from 8.0 to 7.5. Specifically, recombinant human KLK5 (Novoprotein Catalog #C415 or R&D systems Catalog #1108-SE) and fluorogenic peptide Boc-VPR-AMC substrate (R&D Catalog #ES011) were each separately diluted in assay buffer (0.1 M NaH2PO4 buffer, pH 7.5). The compounds of the disclosure were dissolved in DMSO at a concentration of 10 mM. A portion of this stock solution was added to the recombinant human KLK5 solution to provide a desired concentration of the compounds and the mixture was incubated at room temperature. The reaction was initiated by the addition of the fluorogenic peptide substrate at room temperature. The final concentration of recombinant human KLK5 was 0.1 μg/well and the final concentration of the fluorogenic substrate was 100 μM (final volume of 100 μL, 1% DMSO). The assays were performed in 96 well F16 Black Maxisorp Plate (Nunc Catalog #475515). Controls included assay buffer alone and enzyme solutions to which DMSO was added. The reaction rates were measured spectrophotometrically by excitation at 380 nm and emission at 460 nm on a Biotek Synergy H1 plate reader.
The reaction rate for enzyme alone was compared to the reaction rate of enzyme in the presence of compound and the percent inhibition was calculated as shown below:
Percent Inhibition=[Rate with inhibitor/Rate without inhibitor)]×100
An IC50 indicates a compound concentration that inhibits 50% of the enzymatic activity. Compounds were tested a minimum of three times.

| Structure (SMILES) | IC50 |
| --- | --- |
| CC(C)n1nc(COc2ccccc2CC(=O)O)c2cc(-c3ccn4ncc(N)c4n3)ccc21 [Compound 33c, 2-(2-((5-(3-aminopyrazolo[1,5-a]pyrimidin-5-yl)-1-isopropyl-1H-indazol-3-yl)methoxy)phenyl)acetic acid] | > 10000 nM |
| COCCC1(CCOC)CC(Oc2ccccc2CC(=O)O)c2cc(-c3cccc4c(N)nccc34)ccc21 (stereo not shown) [Compound 447b, 2-(2-((6-(1-aminoisoquinolin-5-yl)-3,3-bis(2-methoxyethyl)-2,3-dihydro-1H-inden-1-yl)oxy)phenyl)acetic acid] | < 1000 nM |
| CC(C)(C)OC(=O)N1CCC(n2nc(COc3ccccc3CC(=O)O)c3cc(-c4cccc5c(N)nccc45)ccc32)C1 (stereo not shown) [Compound 86h, 2-(2-((5-(1-aminoisoquinolin-5-yl)-1-(1-(tert-butoxycarbonyl)pyrrolidin-3-yl)-1H-indazol-3-yl)methoxy)phenyl)acetic acid] | < 1000 nM |
| Nc1nccc2ccc(-c3ccc4c(c3)c(COc3ccc(F)cc3CC(=O)O)nn4C3CCC3)cc12 [Compound 166d, 2-(2-((5-(1-aminoisoquinolin-7-yl)-1-cyclobutyl-1H-indazol-3-yl)methoxy)-5-fluorophenyl)acetic acid] | < 1000 nM |
| N=C(N)c1cccc(-c2cc(OCc3nccs3)c3occ(COc4ccccc4CC(=O)O)c3c2)c1 [Compound 228f, 2-(2-((5-(3-carbamimidoylphenyl)-7-(thiazol-2-ylmethoxy)benzofuran-3-yl)methoxy)phenyl)acetic acid] | < 1000 nM |
| CC(C)n1nc(COc2ccccc2CC(=O)O)c2cc(-c3cccc(C(=N)N)c3)ccc21 [Compound 6b, 2-(2-((5-(3-carbamimidoylphenyl)-1-isopropyl-1H-indazol-3-yl)methoxy)phenyl)acetic acid] | < 1000 nM |
| COc1cc(-c2cccc3c(N)nccc23)cc2c(COc3ccccc3CC(=O)O)coc12 [Compound 235b, 2-(2-((5-(1-aminoisoquinolin-5-yl)-7-methoxybenzofuran-3-yl)methoxy)phenyl)acetic acid] | 1000 to 10000 nM |
| CCS(=O)(=O)N1CCC(n2nc(COc3ccccc3CC(=O)O)c3cc(-c4cccc5c(N)nccc45)ccc32)C1 (stereo not shown) [Compound 313b, 2-(2-((5-(1-aminoisoquinolin-5-yl)-1-(1-(ethylsulfonyl)pyrrolidin-3-yl)-1H-indazol-3-yl)methoxy)phenyl)acetic acid] | < 1000 nM |
| N#Cc1cccc(CC(=O)O)c1OCc1nn(C2CCC2)c2ccc(-c3cccc4c(N)nccc34)cc12 [Compound 175b, 2-(2-((5-(1-aminoisoquinolin-5-yl)-1-cyclobutyl-1H-indazol-3-yl)methoxy)-3-cyanophenyl)acetic acid] | 1000 to 10000 nM |
| Cc1cccc(OC2CC3(CCCCC3)c3ccc(-c4ccc5ccnc(N)c5c4)cc32)c1CC(=O)O (stereo not shown) [Compound 378b, 2-(2-((5′-(1-aminoisoquinolin-7-yl)-2′,3′-dihydrospiro[cyclohexane-1,1′-inden]-3′-yl)oxy)-6-methylphenyl)acetic acid] | < 1000 nM |
| CCC(=O)N1CCC2(CC1)CC(Oc1ccccc1CC(=O)O)c1cc(-c3cccc4c(N)nccc34)ccc12 (single isomer, unassigned; (-)) [Compound 385e, (−)-2-(2-((5-(1-aminoisoquinolin-5-yl)-1′-propionyl-2,3-dihydrospiro[indene-1,4′-piperidin]-3-yl)oxy)phenyl)acetic acid] | < 1000 nM |
| CC(C)n1nc(COc2ccccc2CC(=O)O)c2cc(-c3ccc4ncc(N)n4n3)ccc21 [Compound 55c, 2-(2-((5-(3-aminoimidazo[1,2-b]pyridazin-6-yl)-1-isopropyl-1H-indazol-3-yl)methoxy)phenyl)acetic acid] | > 10000 nM |
| COc1ncc(N)c2cc(-c3ccc4c(c3)c(COc3ccccc3CC(=O)O)nn4C(C)C)ccc12 [Compound 73d, 2-(2-((5-(4-amino-1-methoxyisoquinolin-6-yl)-1-isopropyl-1H-indazol-3-yl)methoxy)phenyl)acetic acid] | > 10000 nM |
| Nc1nccc2c(-c3cc(-c4ccccc4)c4c(c3)C(Oc3ccccc3CC(=O)O)CC4)cccc12 (stereo not shown) [Compound 256f, 2-(2-((6-(1-aminoisoquinolin-5-yl)-4-phenyl-2,3-dihydro-1H-inden-1-yl)oxy)phenyl)acetic acid] | 1000 to 10000 nM |
| Cn1nc(COc2ccccc2CC(=O)O)c2cc(-c3ccc4ccnc(N)c4c3)cnc21 [Compound 196e, 2-(2-((5-(1-aminoisoquinolin-7-yl)-1-methyl-1H-pyrazolo[3,4-b]pyridin-3-yl)methoxy)phenyl)acetic acid] | < 1000 nM |
| Cn1c(=O)n(Cc2ccccc2CC(=O)O)c2cc(-c3cccc4c(N)nccc34)ccc21 [Compound 218b, 2-(2-((6-(1-aminoisoquinolin-5-yl)-3-methyl-2-oxo-2,3-dihydro-1H-benzo[d]imidazol-1-yl)methyl)phenyl)acetic acid] | 1000 to 10000 nM |
| CC(C)Cn1nc(COc2ccccc2CC(=O)O)c2cc(-c3ccc4ccnc(N)c4c3)ccc21 [Compound 188e, 2-(2-((5-(1-aminoisoquinolin-7-yl)-1-isobutyl-1H-indazol-3-yl)methoxy)phenyl)acetic acid] | < 1000 nM |
| Cc1cccc(OC2CC3(CCOCC3)c3ccc(-c4ccc5ccnc(N)c5c4)cc32)c1CC(=O)O (stereo not shown) [Compound 352c, 2-(2-((5-(1-aminoisoquinolin-7-yl)-2,2′,3,3′,5′,6′-hexahydrospiro[indene-1,4′-pyran]-3-yl)oxy)-6-methylphenyl)acetic acid] | < 1000 nM |
| CCOC(=O)N1CC[C@H](n2nc(COc3cccc(C4CC4)c3CC(=O)O)c3cc(-c4cccc5c(N)nccc45)ccc32)C1 [Compound 357b, (S)-2-(2-((5-(1-aminoisoquinolin-5-yl)-1-(1-(ethoxycarbonyl)pyrrolidin-3-yl)-1H-indazol-3-yl)methoxy)-6-cyclopropylphenyl)acetic acid] | < 1000 nM |
| Nc1nccc2ccc(-c3ccc4c(c3)C(Oc3ccccc3CC(=O)O)CC43CCCCC3)cc12 (stereo not shown) [Compound 391b, 2-(2-((5′-(1-aminoisoquinolin-7-yl)-2′,3′-dihydrospiro[cyclohexane-1,1′-inden]-3′-yl)oxy)phenyl)acetic acid] | < 1000 nM |
| Nc1nccc2ccc(-c3ccc4c(c3)c(COc3ccccc3CC(=O)O)nn4C3CCN(CCO)C3)cc12 (stereo not shown) [Compound 299b, 2-(2-((5-(1-aminoisoquinolin-7-yl)-1-(1-(2-hydroxyethyl)pyrrolidin-3-yl)-1H-indazol-3-yl)methoxy)phenyl)acetic acid] | < 1000 nM |
| Cc1cccc(OC2CC3(CCN(C(=O)OCC(C)C)CC3)c3ccc(-c4ccc5ccnc(N)c5c4)cc32)c1CC(=O)O (stereo not shown) [Compound 450c, 2-(2-((5-(1-aminoisoquinolin-7-yl)-1′-(isobutoxycarbonyl)-2,3-dihydrospiro[indene-1,4′-piperidin]-3-yl)oxy)-6-methylphenyl)acetic acid] | < 1000 nM |
| Cc1cccc(OCc2nn(C3CCC(F)(F)C3)c3ccc(-c4ccc5ccnc(N)c5c4)cc23)c1CC(=O)O (stereo not shown) [Compound 277b, 2-(2-((5-(1-aminoisoquinolin-7-yl)-1-(3,3-difluorocyclopentyl)-1H-indazol-3-yl)methoxy)-6-methylphenyl)acetic acid] | < 1000 nM |
| Cc1cccc(OCc2nn(CC3CCOC3)c3ccc(-c4cccc5c(N)nccc45)cc23)c1CC(=O)O (stereo not shown) [Compound 94e, 2-(2-((5-(1-aminoisoquinolin-5-yl)-1-((tetrahydrofuran-3-yl)methyl)-1H-indazol-3-yl)methoxy)-6-methylphenyl)acetic acid] | < 1000 nM |
| COc1cnc(N)c2cc(-c3ccc4c(c3)c(COc3ccccc3CC(=O)O)nn4C(C)C)ccc12 [Compound 74d, 2-(2-((5-(1-amino-4-methoxyisoquinolin-7-yl)-1-isopropyl-1H-indazol-3-yl)methoxy)phenyl)acetic acid] | 1000 to 10000 nM |
